“Also recorded” adds a separate entry of the source.
Target: T1, mouse alpha 2B receptor (m α2B) (Mus musculus, UniProt P30545)
T1 construct: expressed in transfected cells
T1 sequence (P30545 1-453): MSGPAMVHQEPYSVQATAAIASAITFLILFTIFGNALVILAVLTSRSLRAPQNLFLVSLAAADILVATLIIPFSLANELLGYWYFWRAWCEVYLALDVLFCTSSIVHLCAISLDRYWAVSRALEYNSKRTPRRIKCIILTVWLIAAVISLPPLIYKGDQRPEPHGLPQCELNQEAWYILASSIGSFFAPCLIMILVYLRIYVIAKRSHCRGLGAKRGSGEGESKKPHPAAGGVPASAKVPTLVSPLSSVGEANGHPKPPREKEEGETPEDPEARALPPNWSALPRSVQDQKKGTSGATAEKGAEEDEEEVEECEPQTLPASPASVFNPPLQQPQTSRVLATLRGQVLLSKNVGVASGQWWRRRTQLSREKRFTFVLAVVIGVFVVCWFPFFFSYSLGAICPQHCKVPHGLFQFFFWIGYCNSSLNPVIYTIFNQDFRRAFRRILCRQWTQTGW
Experiment: FLIPR calcium flux assay in HEK 293 m α2B/Gqi5 cells (Fluo-4 dye)
Assay type: cell-based
Conditions: for activity (ratio of peak height divided by background fluorescence): FIGS. 3A-3C, room temperature, 1 to 10^4 nM, 384 well, FLIPR buffer without HEPES, commercial screening company
Source text: This example describes the methodology used in assaying compounds for the ability to modulate the α2B receptor in a high throughput assay format in which the “readout” is the measurement of a change in intracellular calcium flux due to the use of the “promiscuous” Gqi5 hybrid G-protein, linking the α2B receptor (normally coupled to the adenylyl cyclase pathway) to the PLC pathway. Changes in intracellular calcium flux are monitored using a dye that becomes fluorescent when it binds free Ca^++ ion.
HEK 293 cells are stably co-transfected with two plasmids, the first encoding the mouse alpha 2B receptor (m α2B), and the second encoding the hybrid Gqi5 protein. […] The nucleotide sequence encoding the human Gqi5 protein is contained in the reference Aiyar et al., Human AT1 receptor is a single copy gene: characterization in a stable cell line. Mol. Cell. […] These references are hereby all incorporated by reference herein. […]
Each well of cells (in a 96 well microtiter dish) is assayed for activity in the FLIPR assay using the Fluo-4® calcium indicator dye to detect calcium flux. The structure of this dye, which can be purchased from Molecular Probes, Inc., is as follows:
The cells are loaded with this dye using the manufacturer's recommendations, and washed 3× with FLIPR Buffer. Assays are conducted at room temperature (unless otherwise indicated in the following examples). […] Only cells releasing Ca++ into the cytosol of the cells (thereby permitting Ca++ binding to the Fluo-4 dye) will have increased fluorescent emission at 520 nm.
Images of the illuminated cells are captured with a charge-coupled device (CCD) camera; CCD technology is adapted for producing high-resolution images in conditions of ultra low light. Images are collected at the rate of 60 images/minute (1 image per second) in each well. After 10 seconds, 50 μl of the test compound is pipetted into the well, and further images are collected at 1 second intervals for an additional 60 seconds, then at 15 second intervals for 4 minutes. Test compounds are prepared from 10^-2 M stocks in DMSO. Compounds are diluted in the FLIPR buffer to a final DMSO concentration of about 1%.
All images are stored on a computer hard drive for later retrieval and analysis.

[1] = FIG. 1, assay carried out at 35° C., 96 well
[2] = FIG. 2, second experiment, 35° C., norepinephrine standard

EC50 (32° C., FIG. 4B) [nM] | relative efficacy (32° C., FIG. 4B) [%] | EC50 (35° C., FIG. 4C) [nM] | relative efficacy (35° C., FIG. 4C) [%] | EC50 (37° C., FIG. 4D) [nM] | relative efficacy (37° C., FIG. 4D) [%] | EC50 [1] [nM] | relative efficacy compared to a norepinephrine standard [1] [%] | EC50 (Room Temp., FIG. 4A) [nM] | relative efficacy (Room Temp., FIG. 4A) [%] | EC50 (FIG. 2, second experiment, 35° C., 96 well) [nM] | Compound | activity (ratio of peak height divided by background fluorescence) | relative efficacy [2] [%]
337 | 32 | 318 | 31 | 65 | 30 | 242 | 35 | > 1000 |  |  | OCCNC(=S)NCc1cccc(Cl)c1F [Compound 2] | shows no activity; also recorded: very modest activity only at very high concentrations; also recorded: do not show activity to any significant degree | 
 |  |  |  |  |  |  |  |  |  |  | norepinephrine [reference compound] | showed an activity ratio above background; also recorded: shows activity above background | 90
302 | 30 | 321 | 40 | 67 | 40 | 238 | 40 | 305 | 12 |  | c1ncc(CC2CCC3=C(CCCC3)C2)[nH]1 (centres unmarked) [Compound 1] | do not show activity to any significant degree | 
 |  |  |  |  |  |  |  |  |  |  | COc1ccccc1N1CCN(CCN2C(=O)c3ccccc3C(C)(C)C2=O)CC1 [ARC 239, reference compound] | showed no ability to stimulate alpha 2B receptor activity | 
 |  |  |  |  |  |  |  |  |  | 129 | O=C1C2=C(CCCC2)CCC1CC1CN=CN1 (centres unmarked) [Compound 3] |  | 31

From patent publication US7655396B1, “Methods for detecting receptor modulator activity” (Allergan, Inc., priority 2006, dated 2010)
